From patent US10023565B2, “N,N′ substituted piperidinamine compounds, and preparation method and usage thereof” (Institute of Pharmacology and Toxicology Academy of …, priority 2013, dated 2018)

Experiments:
Type in all cases: cell-based
[1] = tested on: AsPC-1; assay: Extended test against tumor cell lines (ATPlite); conditions: AsPC-1 (pancreatic cancer), 72 hours
Procedure: (§1) The compounds of Examples 36/37/40/47/49 were used to carry out extended test against tumor cell lines, wherein 12 kinds of cells were selected, including liver cancer cells, gastric cancer cells, pancreatic cancer cells, colorectal cancer cells, lung cancer cells and normal cells, which were shown in Table 12:
(§2) A 100 mm culture dish with overgrown adherent cells was digested with 1 ml 0.25% trypsin (GIBCO) at 37° C. for 5 min, and the reaction was terminated with 2 ml culture medium (containing 10% FBS, GIBCO). The cells were scattered and collected, after counting, diluted to 1×10^5 cells/ml, and seeded into a 96-well plate at 50 μl/well, 5000 cells/well, excluding the peripheral circle of wells in which no cell was added, but PBS was added, 54 wells in total, and then incubated at 37° C. for 24 hours for adhering.
(§3) The test sample was diluted to final concentration of 4, 1, 0.25, 0.063, 0.016 μM, culture medium was filled in control well, 3 parellel wells were set for each concentration, 50 μl each well, followed by incubation at 37° C. for 72 hours.
(§4) 3) Test after incubation at 37° C. for 72 hours: 50 μL of ATPlite kitsubstrate solution was added in each well, and vibrated for 3 min, followed by placing aside in darkness for 10 min, and then supernatant 100 μl/well was taken and placed on a luminescence test plate; the luminescence test plate that has been fully incubated was placed in a luminescence test instrument, to read luminescence value.
(§5) Cell survival rate (%)=Experimental group RLU/control group RLU×100%. The experimental data were subjected to data analysis and processing by utilizing GraphPad software.

[2] = tested on: A549; assay: Extended test against tumor cell lines (ATPlite); conditions: A549 (lung cancer), 72 hours
Procedure: as §1, §2, §3, §4, §5

[3] = tested on: H460; assay: Extended test against tumor cell lines (ATPlite); conditions: H460 (lung cancer), 72 hours
Procedure: as §1, §2, §3, §4, §5

[4] = tested on: WI-38 (human embryonic lung fibroblast); assay: Extended test against tumor cell lines (ATPlite); conditions: WI-38 (normal cells), 72 hours
Procedure: as §1, §2, §3, §4, §5

[5] = tested on: MRC5 (lung epithelial fibroblast); assay: Extended test against tumor cell lines (ATPlite); conditions: MRC5 (normal cells), 72 hours
Procedure: as §1, §2, §3, §4, §5

[6] = tested on: HT-29; assay: Extended test against tumor cell lines (ATPlite); conditions: HT-29 (colorectal cancer), 72 hours
Procedure: as §1, §2, §3, §4, §5

[7] = tested on: HepG2; assay: Extended test against tumor cell lines (ATPlite); conditions: HepG2 (liver cancer), 72 hours
Procedure: as §1, §2, §3, §4, §5

[8] = tested on: MIA-PaCa-2; assay: Extended test against tumor cell lines (ATPlite); conditions: MIA-PaCa-2 (pancreatic cancer), 72 hours
Procedure: as §1, §2, §3, §4, §5

[9] = tested on: N87; assay: Extended test against tumor cell lines (ATPlite); conditions: N87 (gastric cancer), 72 hours
Procedure: as §1, §2, §3, §4, §5

[10] = tested on: BGC823; assay: Extended test against tumor cell lines (ATPlite); conditions: BGC823 (gastric cancer), 72 hours
Procedure: as §1, §2, §3, §4, §5

[11] = tested on: Huh-7; assay: Extended test against tumor cell lines (ATPlite); conditions: Huh-7 (liver cancer), 72 hours
Procedure: as §1, §2, §3, §4, §5

[12] = tested on: six human breast cancer cell strains; assay: Antitumor activity evaluation, statements on the whole panel; conditions: compound alone
Source text: In antitumor activity evaluation, six human breast cancer cell strains are selected, including BT474, SK-BR3 which are human breast cancer cell strains sensitive to lapatinib, BT/Lap^R1.0, SK/Lap^R1.0 which are human breast cancer cell strains with secondary resistance to lapatinib, MDA-MB-361, MDA-MB-453 which are human breast cancer cell strains with natural resistance tolapatinib.
Antitumor bioactivity evaluation of the compounds of Examples according to the method described below
as §2, with “Cells plating: a” for “A”, “60” for “54”
Addition of the compound and lapatinib: the test sample was diluted to a final concentration of 5 μM, and the culture medium with the corresponding compound solvent concentration was filled in the control well, the compound solvent concentration was kept consistent in each well, 5 parellel wells were set for each concentration, 25 μl each well, 25 μl culture medium (in combined group, 25 μl lapatinib was added till a final concentration of 1 μM) supplemented, followed by incubation at 37° C. for 72 hours.
as §4, with “Test” for “3) Test”, “ATPlite kit substrate” for “ATPlite kitsubstrate”, “on aluminescence” for “on a luminescence”
1. Cell survival rate (%)=Experimental group RLU/control group RLU×100%. The experimental data were subjected to data analysis and processing by utilizing GraphPad software.

CSc1nccc(N2CCC(N(C)Cc3ccc(C#N)cc3)CC2)n1 [Example 36, N-methyl-N-(4-cyanobenzyl)-N-[1-(2-methylthiopyrimidin-4-yl)piperidin-4-yl]amine]
Survival rate ([1]; 0.016 μM): 96.8% | Survival rate ([1]; 0.063 μM): 99.4% | Survival rate ([1]; 0.25 μM): 94.9% | Survival rate ([1]; 1 μM): 90.0% | Survival rate ([1]; 4 μM): 57.2% | Survival rate ([2]; 0.016 μM): 98.9% | Survival rate ([2]; 0.063 μM): 97.6% | Survival rate ([2]; 0.25 μM): 95.3% | Survival rate ([2]; 1 μM): 75.8% | Survival rate ([2]; 4 μM): 46.5% | Survival rate ([3]; 0.016 μM): 99.4% | Survival rate ([3]; 0.063 μM): 99.3% | Survival rate ([3]; 0.25 μM): 97.3% | Survival rate ([3]; 1 μM): 93.6% | Survival rate ([3]; 4 μM): 19.1% | Survival rate ([4]; 0.016 μM): 93.9% | Survival rate ([4]; 0.063 μM): 93.7% | Survival rate ([4]; 0.25 μM): 91.5% | Survival rate ([4]; 1 μM): 82.0% | Survival rate ([4]; 4 μM): 51.1% | Survival rate ([5]; 0.016 μM): 96.8% | Survival rate ([5]; 0.063 μM): 96.1% | Survival rate ([5]; 0.25 μM): 91.0% | Survival rate ([5]; 1 μM): 76.1% | Survival rate ([5]; 4 μM): 39.1% | Survival rate ([6]; 0.016 μM): 97.5% | Survival rate ([6]; 0.063 μM): 94.3% | Survival rate ([6]; 0.25 μM): 90.9% | Survival rate ([6]; 1 μM): 79.0% | Survival rate ([6]; 4 μM): 27.1% | Survival rate ([7]; 0.016 μM): 98.8% | Survival rate ([7]; 0.063 μM): 97% | Survival rate ([7]; 0.25 μM): 94.7% | Survival rate ([7]; 1 μM): 77.1% | Survival rate ([7]; 4 μM): 4.5% | Survival rate ([8]; 0.016 μM): 91.6% | Survival rate ([8]; 0.063 μM): 92.2% | Survival rate ([8]; 0.25 μM): 91.2% | Survival rate ([8]; 1 μM): 66.0% | Survival rate ([8]; 4 μM): 22.2% | Survival rate ([9]; 0.016 μM): 92.9% | Survival rate ([9]; 0.063 μM): 96.7% | Survival rate ([9]; 0.25 μM): 97.2% | Survival rate ([9]; 1 μM): 77.1% | Survival rate ([9]; 4 μM): 40.3% | Survival rate ([10]; 0.016 μM): 96.6% | Survival rate ([10]; 0.063 μM): 93.2% | Survival rate ([10]; 0.25 μM): 89.1% | Survival rate ([10]; 1 μM): 74.3% | Survival rate ([10]; 4 μM): 27.7% | Survival rate ([11]; 0.016 μM): 90.9% | Survival rate ([11]; 0.063 μM): 88.2% | Survival rate ([11]; 0.25 μM): 83.0% | Survival rate ([11]; 1 μM): 65.4% | Survival rate ([11]; 4 μM): 14.3% | growth inhibition to the six human breast cancer cell strains [12]: relatively significant growth inhibition

CSc1nccc(N2CCC(N(C)Cc3c(Cl)cccc3Cl)CC2)n1 [Example 49, N-methyl-N-(2,6-dichlorobenzyl)-N-[1-(2-methylthiopyrimidin-4-yl)piperidin-4-yl]amine]
Survival rate ([1]; 0.016 μM): 99.1% | Survival rate ([1]; 0.063 μM): 97.5% | Survival rate ([1]; 0.25 μM): 93.8% | Survival rate ([1]; 1 μM): 64.4% | Survival rate ([1]; 4 μM): 44.3% | Survival rate ([2]; 0.016 μM): 99.9% | Survival rate ([2]; 0.063 μM): 95.1% | Survival rate ([2]; 0.25 μM): 95.2% | Survival rate ([2]; 1 μM): 60.5% | Survival rate ([2]; 4 μM): 40.1% | Survival rate ([3]; 0.016 μM): 98.4% | Survival rate ([3]; 0.063 μM): 98.3% | Survival rate ([3]; 0.25 μM): 94.2% | Survival rate ([3]; 1 μM): 47.9% | Survival rate ([3]; 4 μM): 19.3% | Survival rate ([4]; 0.016 μM): 98.5% | Survival rate ([4]; 0.063 μM): 97.3% | Survival rate ([4]; 0.25 μM): 92.4% | Survival rate ([4]; 1 μM): 79.8% | Survival rate ([4]; 4 μM): 48.4% | Survival rate ([5]; 0.016 μM): 100.6% | Survival rate ([5]; 0.063 μM): 100.1% | Survival rate ([5]; 0.25 μM): 94.8% | Survival rate ([5]; 1 μM): 80.8% | Survival rate ([5]; 4 μM): 41.1% | Survival rate ([6]; 0.016 μM): 96.3% | Survival rate ([6]; 0.063 μM): 91% | Survival rate ([6]; 0.25 μM): 84.7% | Survival rate ([6]; 1 μM): 63.9% | Survival rate ([6]; 4 μM): 25.1% | Survival rate ([7]; 0.016 μM): 101.8% | Survival rate ([7]; 0.063 μM): 96.2% | Survival rate ([7]; 0.25 μM): 82.1% | Survival rate ([7]; 1 μM): 9.5% | Survival rate ([7]; 4 μM): 2.4% | Survival rate ([8]; 0.016 μM): 97.6% | Survival rate ([8]; 0.063 μM): 97.4% | Survival rate ([8]; 0.25 μM): 92.8% | Survival rate ([8]; 1 μM): 33.1% | Survival rate ([8]; 4 μM): 22.9% | Survival rate ([9]; 0.016 μM): 89.5% | Survival rate ([9]; 0.063 μM): 74.1% | Survival rate ([9]; 0.25 μM): 65.6% | Survival rate ([9]; 1 μM): 42.8% | Survival rate ([9]; 4 μM): 26% | Survival rate ([10]; 0.016 μM): 102.8% | Survival rate ([10]; 0.063 μM): 102.4% | Survival rate ([10]; 0.25 μM): 95.1% | Survival rate ([10]; 1 μM): 44% | Survival rate ([10]; 4 μM): 17.3% | Survival rate ([11]; 0.016 μM): 91.3% | Survival rate ([11]; 0.063 μM): 82% | Survival rate ([11]; 0.25 μM): 70.5% | Survival rate ([11]; 1 μM): 19.4% | Survival rate ([11]; 4 μM): 12.8%
